# Laboratory results: PMC9179882 (Cancers, 2022)
# How the values were obtained:
# [1] = tested on: G4-enriched genes (5′ETS, BCL2, CMYB, CMYC, KRAS, VEGFA) in SW480 cells; test: qRT-PCR of G4-enriched genes; format: cell-based, human; conditions: SW480, CX5461 10 µM for 6 h
# Experimental: Total cellular RNA was isolated from different experimental group cells using Trizol Reagent (15596, Invitrogen, Waltham, MA, USA). Reverse transcription was conducted using RevertAid First Strand cDNA Synthesis Kit (K1622, Thermo Scientific, MA, USA) according to manufacturer’s protocol with random primers. Quantitative PCR was performed with SYBR Green (4309155, Thermo Scientific, MA, USA) on 7900HT Fast Real-time PCR System (Applied Biosystems). Target mRNA levels were normalized to actin (ΔCt), and fold change was determined using the 2^−ΔΔCt method. Experiments were conducted in triplicate.
# In this context, we aimed to analyze whether GA affects the transcription of G4-enriched genes by qRT-PCR. In the case of ribosomal DNA, we measured the short-lived 5′ external transcribed spacer (5′ETS) of the pre-RNA, whichreflects the ribosomal RNA synthesis rate [19].
# γH2AX in SW480 cells = test: Western blot of γH2AX (DNA damage); format: cell-based, human; conditions: SW480, CX5461 10 µM for 6 h
# Source text: Protein extract from different experimental conditions was extracted using RIPA lysis buffer containing 1% PMSF (P7626, Merck, Darmstadt, Germany), 1% protease inhibitor cocktail (PIC) (P8340, Merck, Darmstadt, Germany), and 1% sodium orthovanadate (S6508, Merck, Darmstadt, Germany). Quantification of protein levels was achieved by Bradford method following manufacturer’s protocol (500-0006, BioRad, Hercules, CA, USA). Protein content was loaded on 12% SDS-polyacrylamide gel (1610148, BioRad, Hercules, CA, USA) for electrophoresis and wet transferred to nitrocellulose membranes (66485, Pall corporation, New York, NY, USA). Membranes were blocked with 5% semi-skimmed milk and incubated overnight at 4 °C with antibodies for γH2AX and actin as housekeeping. Then, membranes were incubated with horseradish peroxidase-labeled antibodies for 1 h at RT. After luminal solution (1705060, BioRad, Hercules, CA, USA) incubation, chemiluminiscence signals were measured using Image Quant LAS 4000 (GE Healthcare Life Sciences). […] Protein levels were quantified by ImageJ.
# Then, we investigated DNA damage response because the induction of double-strand breaks is a well-known G4s stabilization associated effect [20]. To this end, we measured the phosphorylation of histone H2AX on Ser-139 (γH2AX), a DNA damage marker, by Western Blot.
# [2] = tested on: G4 structures in SW480 cells; test: BG4 immunofluorescence (G4 stabilization in cells); format: cell-based, human; conditions: SW480, CX5461 10 µM for 6 h, positive control
# Experimental: Cells were seeded on 13 mm circular coverslips and placed in 24-well plates. After exposure to different experimental conditions, fixation was performed with 4% (v/v) paraformaldehyde (P6148, Merck, Darmstadt, Germany) for 10 min at room temperature (RT), permeabilization with 0.1% (v/v) Triton-X100 (T8787, Merck, Darmstadt, Germany) for 10 min and blocking with 10% bovine serum albumin (A7906, Merck, Darmstadt, Germany) containing 0.5% (v/v) Triton-X100 for 30 min at RT. Primary antibodies were incubated for 1 h at RT and secondary antibodies for 30 min at 4 °C in darkness. Finally, all coverslips were mounted onto slides (J2800AMNZ, Thermo scientific, Waltham, MA, USA), including DAPI (4′,6-diamidino-2-phenylindole) for nuclear counterstain. Images were acquired on a Confocal Zeiss LSM 710 inverted microscope with a 63× immersion objective. In a different manner, BG4 immunofluorescence was conducted as previously described [11]. BG4 mean nuclear fluorescence intensity was quantified using Fiji software (N > 250).
# SW620 cells = test: Resazurin cytotoxic assay, metastatic SW620; format: cell-based, human; conditions: Homo sapiens, SW-620, 48 h, mean ± SD
# Experimental: (§1) CRL1790, SW480 and SW620 cell lines were purchased from American Type Culture Collection (ATCC). Cells were cultured at 37 °C with 5% CO2 atmosphere in medium supplemented with 10% fetal bovine serum (10270106, Gibco, Waltham, MA, USA), 10 mg/mL penicillin, 10 mg/mL streptomycin, […] amphotericin, and 0.03% L-Glutamine as recommended by the ATCC. MEM medium (M5650, Merck, Darmstadt, Germany) was used for non-tumoral CRL1790, and RPMI 1640 medium (L0501-500, Biowest, Nuaillé, France) was used for both tumoral SW480 and SW620 cell lines.
# (§2) Cytotoxic activity was screened using Resazurin Fluorimetric Assay (R7017, Merck, Darmstadt, Germany), according to the manufacturer’s protocol. Cells seeded into 96-well plates (8 × 10^3 cells/well) were treated for 48 h with phenolic compounds at increasing concentrations from 2 × 10^−5 µM to 100 µM. Negative control with vehicle DMSO was included. Fluorescence was determined using Nanoquant Infinite M200 Pro multi-plate reader (Tecan). Half-maximal inhibitory concentration (IC50) values were determined in triplicate by non-linear regression with Graphpad (Prism).
# (§3) Natural products such as phenolic compounds have recently attracted significant attention for their anticancer properties. […] We used three different cell lines to mimic CRC progression. In particular, CRL1790 are colon epithelial cells simulating the non-tumoral stage. In addition, SW480 is Dukes’ type B colorectal adenocarcinoma cells representing the primary tumor. Finally, SW620 constitutes Dukes’ type C colorectal adenocarcinoma derived from metastasic site cells to mimic the most aggressive metastasic stage. […] Cytotoxic potency upon 48 h treatment with phenolic compounds was examined by determination of half-maximal inhibitory concentration (IC50) values using the Resazurin method (Table 1). Only GA inhibited cell growth in SW480 and SW620 at clinically-relevant concentrations (IC50 values lower than 30 µM).
# CRL1790 cells = test: Resazurin cytotoxic assay, non-tumoral CRL1790; format: cell-based; conditions: Homo sapiens, Epithelial cell, CRL1790 non-tumoral colon epithelial cells, 48 h, mean ± SD
# Experimental: as §1, §2, §3
# SW480 cells = test: Resazurin cytotoxic assay, tumoral SW480; format: cell-based, human; conditions: Homo sapiens, SW480, 48 h, SW480 primary tumor cells, mean ± SD
# Experimental: as §1, §2, §3
SMILES,transcription of G4-enriched genes [1],DNA damage (γH2AX protein levels) (γH2AX in SW480 cells),nuclear BG4 signal [2],IC50 (SW620 cells),IC50 (CRL1790 cells),IC50 (SW480 cells)
Cc1cnc(CNC(=O)c2c(=O)c3ccc(N4CCCN(C)CC4)nc3n3c2sc2ccccc23)cn1 [CX5461],influenced the expression levels of some of these genes,significantly induced DNA damage,A similar effect was observed,,,
"OCCc1ccc(O)c(O)c1 [Hydroxytyrosol, hydroxytyrosol]",,,,71.9 ± 3.52 µM,> 100 µM,> 100 µM
"OC[C@H]1O[C@@H](Oc2cc(O)cc(/C=C/c3ccc(O)cc3)c2)[C@H](O)[C@@H](O)[C@@H]1O [Piceid, piceid]",,,,> 100 µM,> 100 µM,> 100 µM
"Oc1ccc(/C=C/c2cc(O)cc(O)c2)cc1 [Resveratrol, resveratrol]",,,,> 100 µM,> 100 µM,> 100 µM
"OCCc1ccc(O)cc1 [Tyrosol, tyrosol]",,,,> 100 µM,> 100 µM,> 100 µM
